From patent US20230312759A1, “BISPECIFIC ANTIBODY AGAINST CD3 AND CD20 IN COMBINATION THERAPY FOR TREATING DIFFUSE LARGE B-CELL LYMPHOMA” (GENMAB A/S, priority 2020, published 2023)

Legend:
Raji cells = type: cell-based; conditions: with T cells, 48 hours, epcoritamab 0.01 pg/mL-100 ng/mL, gemcitabine, oxaliplatin at EC30 concentrations
Procedure: (§1) Briefly, human Burkitt lymphoma (Raji) and DLBCL (SU-DHL-4) cell lines were used as target cells. Cells were cultured in culture medium (RPMI 1640 with HEPES and L-Glutamine supplemented with 10% heat-inactivated donor bovine serum with iron, and 1% [v/v]penicillin/streptomycin) to which 2 mM L-glutamine and 1 mM sodium pyruvate were added, at 37° C., 5% CO2. T cells, isolated from human healthy donor buffy coats (Sanquin) by negative selection using the RosetteSep™ Human T Cell Enrichment Cocktail (Stemcell Technologies), followed by density centrifugation over a Ficoll gradient, both according to the manufacturer's instructions, were used as effector cells. Isolated cells were washed twice in phosphate buffered saline (PBS) and counted using acridine orange/propidium iodide (AO/PI) viability staining solution (Nexcelom Bioscience) on a Cellometer® Auto 2000 Cell Viability Counter. […] B-cell viability and T-cell activation were measured by flow cytometry (count of CD22-positive cells; expression of the T-cell activation markers CD69, CD25, programmed cell death protein 1 (PD-1), and CD107 [lysosomal associated membrane protein 1; LAMP-1] on CD4+ and CD8+ T cells). Absolute cell numbers were determined by adding Accucheck Counting beads (100 μL/well) (Thermofisher) and calculated as follows:
(§2) Correction factor=([bead count1+bead count2]/average bead countplate)
(§3) Absolute cell number=[cell countsample/correction factor]
(§4) The percentage cytotoxicity was calculated as follows:
(§5) % cytotoxicity=100−([absolute cell numbersample/absolute cell numberno antibody]×100%)

SU-DHL-4 cells = type: cell-based; conditions: SU-DHL-4, with T cells, 48 hours; epcoritamab 0.01 pg/mL-100 ng/mL; gemcitabine, oxaliplatin at EC30 concentrations
Procedure: as §1, §2, §3, §4, §5

R/R B-NHL = experiment: Ongoing clinical trial of epcoritamab monotherapy (NCT03625037); type: in vivo, human; conditions: R/R B-NHL patients, preliminary data
Text: Summary of Ongoing Clinical Trial with Epcoritamab Epcoritamab as monotherapy is currently in a clinical trial for the treatment of relapsed/refractory (R/R) B-NHL (ClinicalTrials.gov Identifier: NCT03625037).

[1] = system: T cells incubated with Raji cells; experiment: In vitro T-cell activation assay, T cells incubated with Raji cells; type: cell-based, human; conditions: Raji target cells, 48 hours
Procedure: as §1, with “follows: […]” for “follows:”

[2] = system: T cells incubated with SU-DHL-4 cells; experiment: In vitro T-cell activation assay, T cells incubated with SU-DHL-4 cells; type: cell-based, human; conditions: SU-DHL-4 target cells, 48 hours
Procedure: as §1, with “follows: […]” for “follows:”

[3] = epcoritamab 0.01 pg/mL-100 ng/mL, flow cytometry
[4] = gemcitabine 1 nM, oxaliplatin 0.3 μM

## Nc1ccn(C2OC(CO)C(O)C2(F)F)c(=O)n1 (centres unmarked) [gemcitabine, 4-amino-1-[3,3-difluoro-4-hydroxy-5-(hydroxymethyl)oxolan-2-yl]-1,2-dihydropyrimidin-2-one]
Raji cells
  cytotoxicity of B cells (decrease in the number of viable B cells): induced cytotoxicity of B cells
SU-DHL-4 cells
  cytotoxicity of B cells (decrease in the number of viable B cells): induced cytotoxicity of B cells

## O=C1[O][Pt]2([NH][C@@H]3CCCC[C@H]3[NH]2)[O]C1=O [oxaliplatin, [(1R,2R)-cyclohexane-1,2-diamine](ethanedioato-O,O′)platinum(II)]
Raji cells
  cytotoxicity of B cells (decrease in the number of viable B cells): induced cytotoxicity of B cells
SU-DHL-4 cells
  cytotoxicity of B cells (decrease in the number of viable B cells): induced cytotoxicity of B cells

## epcoritamab: IgG1 bispecific CD3×CD20 antibody; heavy and light chains of SEQ ID NOs: 24 and 25 (CD3 arm), 26 and 27 (CD20 arm); CAS 2134641-34-0
R/R B-NHL
  tolerated dose: at least 48 mg
[1]; [3]
  T-cell activation (upregulation of CD69, CD25, PD-1 and LAMP-1 expression): concentration-dependent activation of both CD4+ (data not shown) and CD8+ T cells
[1]; [4]
  Epcoritamab-induced T-cell activation in the presence of gemcitabine, oxaliplatin, or the combination: not affected
[2]; [3]
  T-cell activation (upregulation of CD69, CD25, PD-1 and LAMP-1 expression): concentration-dependent activation of both CD4+ (data not shown) and CD8+ T cells
[2]; [4]
  Epcoritamab-induced T-cell activation in the presence of gemcitabine, oxaliplatin, or the combination: not affected
Raji cells
  cytotoxicity of B cells (decrease in the number of viable B cells): concentration-dependent T-cell-mediated cytotoxicity
SU-DHL-4 cells
  cytotoxicity of B cells (decrease in the number of viable B cells): concentration-dependent T-cell-mediated cytotoxicity
